Each structure is given as a SMILES string. Like-named read-outs stand apart in the source and are kept apart here.

This experiment addresses GST-Bcl-2 (Homo sapiens (Human), UniProt P10415). In words: Time Resolved-Fluorescence Resonance Energy Transfer (TR-FRET) Bcl-2 binding assay. As to the method:
Determination of the utility of compounds having Formula (I) as binders to and inhibitors of anti-apoptotic Bcl-2 proteins was performed using the Time Resolved-Fluorescence Resonance Energy Transfer (TR-FRET) Assay. Tb-anti-GST antibody was purchased from Invitrogen (Catalog No. PV4216).
Representative compounds were serially diluted in dimethyl sulfoxide (DMSO) starting at 50 μM (2× starting concentration; 10% DMSO) and 10 μL were transferred into a 384-well plate. The samples are then mixed on a shaker for 1 minute and incubated for an additional 3 hours at room temperature. For each assay, the probe/antibody and protein/probe/antibody were included on each assay plate as negative and positive controls, respectively. Fluorescence was measured on the Envision (Perkin Elmer) using a 340/35 nm excitation filter and 520/525 (F-Bak peptide) and 495/510 nm (Tb-labeled anti-Histidine antibody) emission filters.
The samples were then mixed on a shaker for 1 minute and incubated for an additional 3 hours at room temperature. For each assay, the probe/antibody and protein/probe/antibody were included on each assay plate as negative and positive controls, respectively. Fluorescence was measured on the Envision (Perkin Elmer) using a 340/35 nm excitation filter and 520/525 (F-Bak peptide) and 495/510 nm (Tb-labeled anti-Histidine antibody) emission filters.
The inhibition constant (Ki) is the dissociation constant of an enzyme-inhibitor complex or a protein/small molecule complex, wherein the small molecule is inhibiting binding of one protein to another protein. So a large Ki value indicates a low binding affinity and a small Ki value indicates a high binding affinity.
In general terms: TR-FRET usually uses a lanthanide donor and a delayed reading to cut background.

Setting [1] is: GST-Bcl-2 1 nM, F-Bak peptide probe 100 nM, Tb-anti-GST antibody 1 nM, Ki by Wang's equation.

Chain of GST-Bcl-2 (P10415 whole entry): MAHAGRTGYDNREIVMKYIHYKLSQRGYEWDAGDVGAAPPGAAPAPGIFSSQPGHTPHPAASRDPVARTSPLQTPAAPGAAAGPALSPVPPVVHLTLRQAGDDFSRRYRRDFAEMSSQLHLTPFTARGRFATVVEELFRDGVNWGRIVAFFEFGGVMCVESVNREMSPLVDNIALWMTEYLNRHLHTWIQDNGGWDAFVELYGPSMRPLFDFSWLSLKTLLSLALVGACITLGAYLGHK

For `CC1(C)CCC(CN2CCN(c3ccc(C(=O)NS(=O)(=O)c4ccc(NC(CO)C5CCOCC5)c([N+](=O)[O-])c4)c(Oc4cc5cc[nH]c5cc4F)c3)CC2)=C(c2ccc(Cl)cc2)C1` (stereo not drawn) [Example 240, 4-(4-{[2-(4-chlorophenyl)-4,4-dimethylcyclohex-1-en-1-yl]methyl}piperazin-1-yl)-2-[(6-fluoro-1H-indol-5-yl)oxy]-N-({4-[(2-hydroxy-1-tetrahydro-2H-pyran-4-ylethyl)amino]-3-nitrophenyl}sulfonyl)benzamide], the Ki (commonly the dissociation constant of the complex between target and ligand, obtained from inhibition or displacement) under setting [1] came to 0.912 nM.
Still for that read-out and setting: next, `CC1(C)CCC(CN2CCN(c3ccc(C(=O)NS(=O)(=O)c4ccc(NC5CCN(Cc6cscn6)CC5)c([N+](=O)[O-])c4)c(Oc4cc5cc[nH]c5cc4F)c3)CC2)=C(c2ccc(Cl)cc2)C1` [Example 245, 4-(4-{[2-(4-chlorophenyl)-4,4-dimethylcyclohex-1-en-1-yl]methyl}piperazin-1-yl)-2-[(6-fluoro-1H-indol-5-yl)oxy]-N-[(3-nitro-4-{[1-(1,3-thiazol-4-ylmethyl)piperidin-4-yl]amino}phenyl)sulfonyl]benzamide]: 0.48 nM; `Cc1c(O)cccc1Oc1cc(N2CCN(CC3=C(c4ccc(Cl)cc4)CC(C)(C)CC3)CC2)ccc1C(=O)NS(=O)(=O)c1ccc(NC2CCN(C)CC2)c([N+](=O)[O-])c1` [Example 159]: 0.526 nM.
As to `CC1(C)CCC(CN2CCN(c3ccc(C(=O)NS(=O)(=O)c4ccc(NC5CCN(C6CCOCC6)CC5)c([N+](=O)[O-])c4)c(Oc4cccc5[nH]c(C(F)(F)F)cc45)c3)CC2)=C(c2ccc(Cl)cc2)C1` [Example 215, 4-(4-{[2-(4-chlorophenyl)-4,4-dimethylcyclohex-1-en-1-yl]methyl}piperazin-1-yl)-N-({3-nitro-4-[(1-tetrahydro-2H-pyran-4-ylpiperidin-4-yl)amino]phenyl}sulfonyl)-2-{[2-(trifluoromethyl)-1H-indol-4-yl]oxy}benzamide], under setting [1], affinity was put at a Ki of 2.95 nM.
As for `C=CCN1CCC(Nc2ccc(S(=O)(=O)NC(=O)c3ccc(N4CCN(CC5=C(c6ccc(Cl)cc6)CC(C)(C)CC5)CC4)cc3Oc3cccc(F)c3F)cc2[N+](=O)[O-])CC1` [Example 146, N-({4-[(1-allylpiperidin-4-yl)amino]-3-nitrophenyl}sulfonyl)-4-(4-{[2-(4-chlorophenyl)-4,4-dimethylcyclohex-1-en-1-yl]methyl}piperazin-1-yl)-2-(2,3-difluorophenoxy)benzamide], the Ki under setting [1] stood at 0.04 nM.
In turn, `CN(C)c1cccc(Oc2cc(N3CCN(Cc4ccccc4-c4ccc(Cl)cc4)CC3)ccc2C(=O)NS(=O)(=O)c2ccc(NCC3CCOCC3)c([N+](=O)[O-])c2)c1` [Example 21, 4-(4-((4′-chloro-1,1′-biphenyl-2-yl)methyl)piperazin-1-yl)-2-(3-(dimethylamino)phenoxy)-N-((3-nitro-4-((tetrahydro-2H-pyran-4-ylmethyl)amino)phenyl)sulfonyl)benzamide] registered a Ki under setting [1] of 14.1 nM.
Consider `O=C(NS(=O)(=O)c1ccc(NCCCN2CCOCC2)c([N+](=O)[O-])c1)c1ccc(N2CCN(Cc3ccccc3-c3ccc(Cl)cc3)CC2)cc1Oc1cccc(CO)c1` [Example 9, 4-(4-((4′-chloro-1,1′-biphenyl-2-yl)methyl)piperazin-1-yl)-2-(3-(hydroxymethyl)phenoxy)-N-((4-((3-morpholin-4-ylpropyl)amino)-3-nitrophenyl)sulfonyl)benzamide], for which, under setting [1], the Ki was 0.754 nM. Compared with the last compound, the Ki is about 19-fold lower.
Still for that read-out and setting: for `O=C(NS(=O)(=O)c1ccc(NCC2CCOCC2)c([N+](=O)[O-])c1)c1ccc(N2CCN(Cc3ccccc3-c3ccc(Cl)cc3)CC2)cc1Oc1ccc2[nH]cc(CCC(=O)N3CCOCC3)c2c1` [Example 73, 4-(4-((4′-chloro-1,1′-biphenyl-2-yl)methyl)piperazin-1-yl)-2-((3-(3-morpholin-4-yl-3-oxopropyl)-1H-indol-5-yl)oxy)-N-((3-nitro-4-((tetrahydro-2H-pyran-4-ylmethyl)amino)phenyl)sulfonyl)benzamide] the value was 32.3 nM; for `CC1(C)CCC(CN2CCN(c3ccc(C(=O)NS(=O)(=O)c4ccc(NN5CCOCC5)c([N+](=O)[O-])c4)c(Oc4cc5cc[nH]c5cc4F)c3)CC2)=C(c2ccc(Cl)cc2)C1` [Example 252, 4-(4-{[2-(4-chlorophenyl)-4,4-dimethylcyclohex-1-en-1-yl]methyl}piperazin-1-yl)-2-[(6-fluoro-1H-indol-5-yl)oxy]-N-{[4-(morpholin-4-ylamino)-3-nitrophenyl]sulfonyl}benzamide], 1.15 nM; for `O=C1CCc2c(cccc2Oc2cc(N3CCN(Cc4ccccc4-c4ccc(Cl)cc4)CC3)ccc2C(=O)NS(=O)(=O)c2ccc(NCC3CCOCC3)c([N+](=O)[O-])c2)N1` [Example 95, 4-(4-((4′-chloro-1,1′-biphenyl-2-yl)methyl)piperazin-1-yl)-N-((3-nitro-4-((tetrahydro-2H-pyran-4-ylmethyl)amino)phenyl)sulfonyl)-2-((2-oxo-1,2,3,4-tetrahydroquinolin-5-yl)oxy)benzamide], 0.428 nM.
`CC1(C)CC(c2ccc(Cl)cc2)=C(CN2CCN(c3ccc(C(=O)NS(=O)(=O)c4ccc(N[C@H]5CC[C@H](N6CCOCC6)CC5)c([N+](=O)[O-])c4)c(Oc4cc5cc[nH]c5cc4Cl)c3)CC2)CO1` [Example 294, Trans-2-[(6-chloro-1H-indol-5-yl)oxy]-4-(4-{[4-(4-chlorophenyl)-6,6-dimethyl-5,6-dihydro-2H-pyran-3-yl]methyl}piperazin-1-yl)-N-({4-[(4-morpholin-4-ylcyclohexyl)amino]-3-nitrophenyl}sulfonyl)benzamide]: the inhibition constant Ki is 0.127 nM.
For the compound `CC(C)(C)OC(=O)N1CCN(c2ccc(Oc3cc(N4CCN(Cc5ccccc5-c5ccc(Cl)cc5)CC4)ccc3C(=O)NS(=O)(=O)c3ccc(NCCCN4CCOCC4)c([N+](=O)[O-])c3)cc2)CC1` [Example 97, tert-butyl 4-(4-(5-(4-((4′-chloro-1,1′-biphenyl-2-yl)methyl)piperazin-1-yl)-2-((((4-((3-morpholin-4-ylpropyl)amino)-3-nitrophenyl)sulfonyl)amino)carbonyl)phenoxy)phenyl)piperazine-1-carboxylate], the affinity under setting [1] corresponds to a Ki of 147 nM.
The same measure, in the same setting: next, `CC1(C)CCC(CN2CCN(c3ccc(C(=O)NS(=O)(=O)c4ccc(NCCCN5CCOCC5)c([N+](=O)[O-])c4)c(Oc4ccc(N)c(Cl)c4)c3)CC2)=C(c2ccc(Cl)cc2)C1` [Example 52, 2-(4-amino-3-chlorophenoxy)-4-(4-((2-(4-chlorophenyl)-4,4-dimethylcyclohex-1-en-1-yl)methyl)piperazin-1-yl)-N-((4-((3-morpholin-4-ylpropyl)amino)-3-nitrophenyl)sulfonyl)benzamide]: 0.072 nM; `CC1(C)CCC(CN2CCN(c3ccc(C(=O)NS(=O)(=O)c4ccc(NCC5CCOCC5)c([N+](=O)[O-])c4)c(Oc4ccc5[nH]cc(Cl)c5c4)c3)CC2)=C(c2ccc(Cl)cc2)C1` [Example 265, 2-[(3-chloro-1H-indol-5-yl)oxy]-4-(4-{[2-(4-chlorophenyl)-4,4-dimethylcyclohex-1-en-1-yl]methyl}piperazin-1-yl)-N-({3-nitro-4-[(tetrahydro-2H-pyran-4-ylmethyl)amino]phenyl}sulfonyl)benzamide]: 0.363 nM; `CN1C(C)(C)CC(Nc2ccc(S(=O)(=O)NC(=O)c3ccc(N4CCN(CC5=C(c6ccc(Cl)cc6)CC(C)(C)CC5)CC4)cc3Oc3ccccc3Cl)cc2[N+](=O)[O-])CC1(C)C` [Example 48, 2-(2-chlorophenoxy)-4-(4-((2-(4-chlorophenyl)-4,4-dimethylcyclohex-1-en-1-yl)methyl)piperazin-1-yl)-N-((3-nitro-4-((1,2,2,6,6-pentamethylpiperidin-4-yl)amino)phenyl)sulfonyl)benzamide]: 0.053 nM.
Same read-out and setting: for `CC1(C)CCC(CN2CCN(c3ccc(C(=O)NS(=O)(=O)c4ccc(NCCN5CCOCC5)c([N+](=O)[O-])c4)c(Oc4cccc(Cl)c4)c3)CC2)=C(c2ccc(Cl)cc2)C1` [Example 141, 2-(3-chlorophenoxy)-4-(4-{[2-(4-chlorophenyl)-4,4-dimethylcyclohex-1-en-1-yl]methyl}piperazin-1-yl)-N-({4-[(2-morpholin-4-ylethyl)amino]-3-nitrophenyl}sulfonyl)benzamide] the value was 0.482 nM.
Regarding `CC1(C)CCC(CN2CCN(c3ccc(C(=O)NS(=O)(=O)c4ccc(N[C@H]5CC[C@H](N6CCOCC6)CC5)c([N+](=O)[O-])c4)c(Oc4cccc5c4CCNC5=O)c3)CC2)=C(c2ccc(Cl)cc2)C1` [Example 304, Trans-4-(4-{[2-(4-chlorophenyl)-4,4-dimethylcyclohex-1-en-1-yl]methyl}piperazin-1-yl)-N-({4-[(4-morpholin-4-ylcyclohexyl)amino]-3-nitrophenyl}sulfonyl)-2-[(1-oxo-1,2,3,4-tetrahydroisoquinolin-5-yl)oxy]benzamide], the affinity corresponds to a Ki of 0.822 nM.
For the compound `CC1(C)CCC(CN2CCN(c3ccc(C(=O)NS(=O)(=O)c4ccc(NC5CCN(C6CCOCC6)CC5)c([N+](=O)[O-])c4)c(Oc4cccc(F)c4)c3)CC2)=C(c2ccc(Cl)cc2)C1` [Example 113, 4-(4-{[2-(4-chlorophenyl)-4,4-dimethylcyclohex-1-en-1-yl]methyl}piperazin-1-yl)-2-(3-fluorophenoxy)-N-({3-nitro-4-[(1-tetrahydro-2H-pyran-4-ylpiperidin-4-yl)amino]phenyl}sulfonyl)benzamide], the Ki under setting [1] was 0.032 nM.

(Values after patent US8952157B2, “Apoptosis-inducing agents for the treatment of cancer and immune and autoimmune diseases” (AbbVie Inc., priority 2008, dated 2015).)
